Measured values: US20240366842A1, “DECELLULARIZED TISSUE HYDROGELS” (THE UNIVERSITY OF NOTTINGHAM, priority 2021, published 2024)

Columns and labels:
[1] = test system: SH-SY5Y (human neuroblastoma cell line); assay: LDH cytotoxicity assay, direct testing; format: cell-based; settings: gel in contact with cell monolayer 24 hours, 1 mM in 5% v/v DMSO, 10 mM in 10% v/v DMSO
Description: (§1) The cytotoxicity of PA crosslinked decellularized tissue hydrogels was assessed by an LDH assay in which hydrogels were incubated with SH-SY5Y (human neuroblastoma cell line).
(§2) Crosslinkers tested were: • PA [publicly available food supplement] • Purified oligomeric PA (OPA) [reference standard quality] • GA • GP
(§3) These were all tested in 1 and 10 mM concentrations, with the 1 mM in a solution containing 5% v/v of DMSO, and the 10 mM in a solution containing 10% v/v DMSO.
(§4) The LDH assay quantifies how many cells have died by quantifying the level of lactate that is present in the culture medium which will have been released upon cell membrane disruption during their death. The assay contains […] releases NADH which in turn can react with the dye present in the assay solutions to produce a colorimetric change. This change can be read through absorbance on a microplate spectrophotometer.
(§5) All results for the LDH have been calculated to % cytotoxicity as per the following formula recommended by the manufacturer: […]
Gels were made and crosslinked as per normal procedure and immersed in Hanks balanced salt solution (HBSS) containing 1% v/v of antibiotics and antimycotics overnight. The gels were then removed and immersed into culture media for 2 hours before placing on top of the cell monolayer and ensuring direct contact. […]

[2] = test system: SH-SY5Y (human neuroblastoma cell line); assay: LDH cytotoxicity assay, indirect (extract) testing; format: cell-based; settings: media conditioned 72 hours, cells exposed 24 hours, 1 mM in 5% v/v DMSO, 10 mM in 10% v/v DMSO
Description: as §1, §2, §3, §4, §5
Gels were made and crosslinked as per normal procedure and immersed in culture media for 72 hours conditioning. The conditioned culture media was then filtered and placed onto cells for a period of 24 hours. Following exposure to the conditioned media, a sample of the media was removed for testing through LDH.

Substance: Triton-X-100 [5% Triton]
- LDH (% cytotoxicity relative to Triton) [1]: 100%
- LDH (% cytotoxicity relative to Triton) [2]: 100%
